Measured values: publication PMC6268991, “Impact of Halogen Substituents on Interactions between 2-Phenyl-2,3-dihydroqulinazolin-4(1H)-one Derivatives and Human Serum Albumin” (Molecules, 2012)

These compounds were tested against T1, human serum albumin (HSA) (Homo sapiens, UniProt P02768) (assay: intrinsic fluorescence quenching, modified Stern-Volmer). Settings: 298 K, pH 7.4, 0.1 M Tris, 0.1 M NaCl, 1 µM HSA, ex 280 / em 337 nm; site II (subdomain IIIA), no site marker.
T1 construct: gene ALB
T1 sequence (P02768 25-609): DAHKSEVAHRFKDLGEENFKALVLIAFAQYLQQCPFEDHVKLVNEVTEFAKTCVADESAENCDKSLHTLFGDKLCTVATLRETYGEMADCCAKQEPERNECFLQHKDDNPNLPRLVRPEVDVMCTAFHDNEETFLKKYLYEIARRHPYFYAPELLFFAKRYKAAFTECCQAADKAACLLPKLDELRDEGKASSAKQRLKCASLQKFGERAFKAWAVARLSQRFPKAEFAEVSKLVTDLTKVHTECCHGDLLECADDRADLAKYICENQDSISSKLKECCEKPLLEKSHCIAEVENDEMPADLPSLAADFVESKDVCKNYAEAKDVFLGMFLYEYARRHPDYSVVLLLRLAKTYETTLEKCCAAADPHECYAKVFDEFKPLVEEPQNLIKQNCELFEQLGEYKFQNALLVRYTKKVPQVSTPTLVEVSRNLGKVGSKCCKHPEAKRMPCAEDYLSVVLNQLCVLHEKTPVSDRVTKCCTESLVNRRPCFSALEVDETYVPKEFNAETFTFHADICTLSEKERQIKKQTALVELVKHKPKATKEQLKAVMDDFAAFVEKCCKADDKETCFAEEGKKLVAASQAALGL
Type: binding
Excerpt: intrinsic fluorescence quenching, modified Stern-Volmer on human serum albumin (HSA)

Ka (×10^4 M^-1)	SMILES
3.44 ×10^4 M^−1	CC(C)(C)CC(=O)N1c2ccc(Cl)cc2C(=O)N(N=Cc2ccc(Cl)cc2)C1c1ccc(Cl)cc1 (centres unmarked) [3c, 3-(4-Chlorobenzylideneamino)-6-chloro-1-(3,3-dimethylbutanoyl)-2-(4-chlorophenyl)-2,3-dihydroquinazolin-4(1H)-one]
4.37 ×10^4 M^−1	CC(C)(C)CC(=O)N1c2ccc(Cl)cc2C(=O)N(N=Cc2ccc(Br)cc2)C1c1ccc(Br)cc1 (centres unmarked) [3d, 3-(4-Bromobenzylideneamino)-6-chloro-1-(3,3-dimethylbutanoyl)-2-(4-bromophenyl)-2,3-dihydroquinazolin-4(1H)-one]
7.21 ×10^4 M^−1	CC(C)(C)CC(=O)N1c2ccc(Cl)cc2C(=O)N(N=Cc2ccc(I)cc2)C1c1ccc(I)cc1 (centres unmarked) [3e, 3-(4-Iodobenzylideneamino)-6-chloro-1-(3,3-dimethylbutanoyl)-2-(4-iodophenyl)-2,3-dihydroquinazolin-4(1H)-one]

Second part, the compound before the results:

SMILES	Ka (×10^4 M^-1)
CC(C)(C)CC(=O)N1c2ccc(Cl)cc2C(=O)N(N=Cc2ccccc2)C1c1ccccc1 (centres unmarked) [3a, 3-(Benzylideneamino)-6-chloro-1-(3,3-dimethylbutanoyl)-2-phenyl-2,3-dihydroquinazolin-4(1H)-one]	2.16 ×10^4 M^−1
CC(C)(C)CC(=O)N1c2ccc(Cl)cc2C(=O)N(N=Cc2ccc(F)cc2)C1c1ccc(F)cc1 (centres unmarked) [3b, 3-(4-Fluorobenzylideneamino)-6-chloro-1-(3,3-dimethylbutanoyl)-2-(4-fluorophenyl)-2,3-dihydroquinazolin-4 (1H)-one]	2.64 ×10^4 M^−1
